Results reported in ChEMBL document CHEMBL5038591, “Identification of a Novel TAR RNA-Binding Protein 2 Modulator with Potential Therapeutic Activity against Hepatocellular Carcinoma” (J Med Chem, 2021).
Calls of active or inactive are those of the source. No cut-off for these calls is given here.

Experiments:
SK-HEP1 [1] = experiment: Antiproliferative activity against human SK-HEP1 cells assessed as increase in miR-22-5p level at 20 uM by qRT-PCR analysis; assay type: functional, cell-based
SK-HEP1 [2] = experiment: Antiproliferative activity against human SK-HEP1 cells assessed as decrease in miR135a-5p level at 20 uM by qRT-PCR analysis; assay type: functional, cell-based
Huh-7 [3] = experiment: Inhibition of colony formation in human Huh-7 cells at 30 uM incubated for 14 days by crystal violet staining based assay; assay type: functional, cell-based; conditions: time 14.0 day
SK-HEP1 [4] = experiment: Inhibition of cell migration in human SK-HEP1 cells at 30 uM incubated for 12 hrs by crystal violet staining based transwell assay; assay type: functional
SK-HEP1 [5] = experiment: Inhibition of cell invasion in human SK-HEP1 cells at 30 uM incubated for 12 hrs by crystal violet staining based transwell assay; assay type: functional
MHCC97 = experiment: Antitumor activity in human MHCC97 cells xenografted in SCID mouse assessed as suppression of tumor growth at 40 mg/kg, ip administered once every 3 day for 30 days by bioluminescence analysis; assay type: functional, organism-based; conditions: time 30.0 day
SK-HEP1 [6] = experiment: Effect on human SK-HEP1 cells assessed as increase in miR-497-5p level by qRT-PCR analysis; assay type: functional, cell-based
SK-HEP1 [7] = experiment: Effect on human SK-HEP1 cells assessed as increase in miR-146a-5p level by qRT-PCR analysis; assay type: functional, cell-based
[8] = biological target: Mitogen-activated protein kinase; ERK1/ERK2 (Homo sapiens) (UniProt P27361+P28482); experiment: Inhibition of ERK1/2 phosphorylation in human SK-HEP1 cells at 30 uM by Western blot analysis; assay type: cell-based
Chain of Mitogen-activated protein kinase; ERK1/ERK2 (Homo sapiens) (P27361 whole entry, looked up): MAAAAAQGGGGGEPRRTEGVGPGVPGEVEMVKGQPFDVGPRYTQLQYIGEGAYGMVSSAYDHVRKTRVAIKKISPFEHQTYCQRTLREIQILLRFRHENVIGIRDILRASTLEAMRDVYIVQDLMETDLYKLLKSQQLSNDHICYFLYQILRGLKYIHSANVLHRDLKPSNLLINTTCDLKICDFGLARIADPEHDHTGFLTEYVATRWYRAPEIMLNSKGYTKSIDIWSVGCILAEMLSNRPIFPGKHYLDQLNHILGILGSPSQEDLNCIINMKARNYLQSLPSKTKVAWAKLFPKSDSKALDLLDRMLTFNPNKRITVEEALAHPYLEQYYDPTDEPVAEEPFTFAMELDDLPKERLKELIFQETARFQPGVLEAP
Chain of Mitogen-activated protein kinase; ERK1/ERK2 (Homo sapiens) (P28482 whole entry, looked up): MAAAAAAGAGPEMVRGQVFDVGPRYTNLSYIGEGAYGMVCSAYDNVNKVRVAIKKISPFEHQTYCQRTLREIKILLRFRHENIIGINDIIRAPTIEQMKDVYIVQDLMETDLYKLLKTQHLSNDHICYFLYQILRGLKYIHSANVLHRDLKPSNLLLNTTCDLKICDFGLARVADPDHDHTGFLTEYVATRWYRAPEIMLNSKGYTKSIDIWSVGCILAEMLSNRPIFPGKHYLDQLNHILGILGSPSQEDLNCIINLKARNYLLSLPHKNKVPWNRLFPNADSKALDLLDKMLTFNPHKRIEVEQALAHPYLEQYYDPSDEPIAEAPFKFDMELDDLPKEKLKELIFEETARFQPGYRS

[9] = biological target: MAP kinase p38 (Homo sapiens) (UniProt O15264+Q15759+Q16539+P53778); experiment: Inhibition of p38 phosphorylation in human SK-HEP1 cells at 30 uM by Western blot analysis; assay type: cell-based
SK-HEP1 [10] = experiment: Inhibition of cell migration in human SK-HEP1 cells overexpressing TRBP at 20 uM measured after 12 hrs using crystal violet staining inverted microscope based transwell assay; assay type: functional
SK-HEP1 [11] = experiment: Antiproliferative activity against human SK-HEP1 cells assessed as increase in miR-214-5p level at 20 uM by qRT-PCR analysis; assay type: functional, cell-based
SK-HEP1 [12] = experiment: Antiproliferative activity against human SK-HEP1 cells assessed as increase in miR-222-5p level at 20 uM by qRT-PCR analysis; assay type: functional, cell-based
Huh-7 [13] = experiment: Antiproliferative activity against human Huh-7 cells at 25 uM incubated for 24 hrs by alamar blue assay; assay type: functional, cell-based
SK-HEP1 [14] = experiment: Effect on AGO2 protein expression in human SK-HEP1 cells at 30 uM after 24 hrs by immunoblot analysis; assay type: functional, cell-based

COc1cc2c(c(O)c1OC)-c1c(cc3c(c1OC)OCO3)C[C@H](C)[C@H](C)C2
Activity (SK-HEP1 [1]): inactive
Activity (SK-HEP1 [2]): inactive
inhibition (Huh-7 [3]): Active
inhibition (SK-HEP1 [4]): Active
inhibition (SK-HEP1 [5]): Active
Activity (MHCC97): Active
Activity (SK-HEP1 [6]): Dose-Dependent Effect
Activity (SK-HEP1 [7]): Dose-Dependent Effect
inhibition [8]: Active
inhibition [9]: inactive
inhibition (SK-HEP1 [10]): Active
Activity (SK-HEP1 [11]): Active
Activity (SK-HEP1 [12]): inactive
Activity (Huh-7 [13]): Active
Activity (SK-HEP1 [14]): inactive
